Target: AtHCT (Arabidopsis thaliana, UniProt Q9FI78)
Assay: X-ray crystal structure
Assay type: binding

Sequence of AtHCT (Q9FI78 whole entry): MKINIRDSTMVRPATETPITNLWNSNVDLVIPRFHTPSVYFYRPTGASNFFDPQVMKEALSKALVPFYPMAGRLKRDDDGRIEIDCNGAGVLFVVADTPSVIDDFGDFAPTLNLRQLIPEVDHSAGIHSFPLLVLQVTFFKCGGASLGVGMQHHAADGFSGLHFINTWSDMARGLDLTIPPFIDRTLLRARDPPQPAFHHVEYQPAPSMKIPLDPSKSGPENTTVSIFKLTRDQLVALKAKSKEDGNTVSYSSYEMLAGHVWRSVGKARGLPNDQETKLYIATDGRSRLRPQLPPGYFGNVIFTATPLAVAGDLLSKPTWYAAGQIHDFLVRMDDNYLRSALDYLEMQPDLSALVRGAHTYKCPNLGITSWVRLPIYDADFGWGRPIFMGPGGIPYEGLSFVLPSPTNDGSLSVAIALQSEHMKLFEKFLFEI

## O=C(/C=C/c1ccc(O)cc1)O[C@@H]1CC(C(=O)O)=C[C@@H](O)[C@H]1O [p-coumaroylshikimate]
Acyl acceptor site, soaked with p-coumaroylshikimate in DMSO
  X-ray crystal structure (soaked crystal): apo-, p-coumaroyl CoA-bound, and p-coumaroyl shikimate-bound AtHCT

## CC(C)(COP(=O)(O)OP(=O)(O)OC[C@H]1O[C@@H](n2cnc3c(N)ncnc32)[C@H](O)[C@@H]1OP(=O)(O)O)[C@@H](O)C(=O)NCCC(=O)NCCSC(=O)/C=C/c1ccc(O)cc1 [p-coumaroyl CoA]
Soaked with p-coumaroyl CoA in water
  X-ray crystal structure (soaked crystal): apo-, p-coumaroyl CoA-bound, and p-coumaroyl shikimate-bound AtHCT
